# Results reported in patent US20120058989A1, “ANTIBACTERIAL FLUOROQUINOLONE ANALOGS” (Achaogen, Inc., priority 2008, published 2012).
# Assays:
# Test in all cases: MIC, CLSI broth microdilution
# Format in all cases: cell-based
# [1] = test system: A. baumannii AABA1009 (Fluoroquinolone-resistant); settings: for MIC AABA 1009: Table 2
# Experimental: (§1) Minimum inhibitory concentrations (MIC) were determined by reference Clinical and Laboratory Standards Institute (CLSI) broth microdilution methods per M7-A7 [2006]. Quality control ranges utilizing E. coli ATCC 25922, P. aeruginosa ATCC 27853 and S. aureus ATCC 29213, and interpretive criteria for comparator agents were as published in CLSI M100-S17 [2007]. Briefly, serial two-fold dilutions of the test compounds were prepared at 2× concentration in Mueller Hinton Broth. The compound dilutions were mixed in 96-well assay plates in a 1:1 ratio with bacterial inoculum. The inoculum was prepared by suspension of a colony from an agar plate that was prepared the previous day. Bacteria were suspended in sterile saline and added to each assay plate to obtain a final concentration of 5×10^5 CFU/mL. The plates were incubated at 35° C. for 20 hours in ambient air.
# [2] = test system: A. baumannii AABA1065 (Fluoroquinolone-susceptible); settings: for MIC AABA 1065: Table 2; for MIC: Acinetobacter baumannii, Table 2, read-out: MIC AABA 1065
# Experimental: as §1
# [3] = test system: E. coli AECO001 (Fluoroquinolone susceptible, ATCC25922); settings: Table 2, 35° C., 20 hours; for MIC: Escherichia coli, read-out: MIC AECO 001
# Experimental: as §1
# [4] = test system: E. coli AECO066 (Fluoroquinolone-resistant); settings: for MIC AECO 066: Table 2; for MIC: Escherichia coli, Table 2, read-out: MIC AECO 066
# Experimental: as §1
# [5] = test system: P. aeruginosa APAE001 (Fluoroquinolone-susceptible, ATCC27853); settings: for MIC APAE 001: Table 2; for MIC: Pseudomonas aeruginosa, Table 2, read-out: MIC APAE 001
# Experimental: as §1
# [6] = test system: P. aeruginosa APAE054 (Fluoroquinolone-resistant); settings: for MIC APAE 054: Table 2
# Experimental: as §1
# [7] = test system: S. aureus ASAU001 (Fluoroquinolone-susceptible, ATCC29213); settings: for MIC ASAU 001: Table 2; for MIC: Staphylococcus aureus, Table 2, read-out: MIC ASAU 001
# Experimental: as §1
# [8] = test system: S. aureus ASAU1031 (Fluoroquinolone-resistant); settings: for MIC ASAU 1031: Table 2
# Experimental: as §1
# [9] = test system: S. pneumoniae ASPN001 (Fluoroquinolone-susceptible, ATCC49619); settings: for MIC ASPN 001: Table 2
# Experimental: as §1
# [10] = test system: S. pneumoniae ASPN1027 (Fluoroquinolone-resistant); settings: for MIC ASPN 1027: Table 2
# Experimental: as §1
Compound,MIC AABA 1009 [1],MIC AABA 1065 [2],MIC AECO 001 [3],MIC AECO 066 [4],MIC APAE 001 [5],MIC APAE 054 [6],MIC ASAU 001 [7],MIC ASAU 1031 [8],MIC ASPN 001 [9],MIC ASPN 1027 [10],"MIC ([1]; Acinetobacter baumannii, Table 2, read-out: MIC AABA 1009)",MIC [2],MIC [3],MIC [4],MIC [5],"MIC ([6]; Pseudomonas aeruginosa, Table 2, read-out: MIC APAE 054)",MIC [7],"MIC ([8]; Staphylococcus aureus, Table 2, read-out: MIC ASAU 1031)","MIC ([9]; Streptococcus pneumoniae, Table 2, read-out: MIC ASPN 001)","MIC ([10]; Streptococcus pneumoniae, Table 2, read-out: MIC ASPN 1027)"
"CCNC1CC2CCCc3c(c(F)cc4c(=O)c(C(=O)O)cn(C5CC5)c34)N2C1.O=C(O)C(F)(F)F (mixture of isomers) [7B/20, (9S)-4-cyclopropyl-9-(ethylamino)-12-fluoro-1-oxo-4,5,6,7,7a,8,9,10-octahydro-1H-pyrrolo[1′,2′:1,7]-azepino[2,3-h]quinoline-2-carboxylic acid trifluoroacetate]",C (MIC's of greater than 8.0 μg/mL = C),A (MIC's of 1.0 μg/mL or less = A),A (MIC's of 1.0 μg/mL or less = A),C (MIC's of greater than 8.0 μg/mL = C),B (MIC's of greater than 1.0 μg/mL to 8.0 μg/mL = B),C (MIC's of greater than 8.0 μg/mL = C),A (MIC's of 1.0 μg/mL or less = A),B (MIC's of greater than 1.0 μg/mL to 8.0 μg/mL = B),A (MIC's of 1.0 μg/mL or less = A),C (MIC's of greater than 8.0 μg/mL = C),,,,,,,,,,
"NCC1CCN2c3c(F)cc4c(=O)c(C(=O)O)cn(C5CC5)c4c3C=CCC12.O=C(O)C(F)(F)F (racemic) [24/rac-16, (7aS*,8S*)-8-(Aminomethyl)-4-cyclopropyl-12-fluoro-1-oxo-4,7,7a,8,9,10-hexahydro-1H-pyrrolo[1′,2′:1,7]aze-pino-[2,3-h]quinoline-2-carboxylic acid trifluoroacetate]",C (MIC's of greater than 8.0 μg/mL = C),A (MIC's of 1.0 μg/mL or less = A),A (MIC's of 1.0 μg/mL or less = A),C (MIC's of greater than 8.0 μg/mL = C),B (MIC's of greater than 1.0 μg/mL to 8.0 μg/mL = B),C (MIC's of greater than 8.0 μg/mL = C),A (MIC's of 1.0 μg/mL or less = A),B (MIC's of greater than 1.0 μg/mL to 8.0 μg/mL = B),A (MIC's of 1.0 μg/mL or less = A),B (MIC's of greater than 1.0 μg/mL to 8.0 μg/mL = B),,,,,,,,,,
"NCC1CCN2c3c(F)cc4c(=O)c(C(=O)O)cn(C5CC5)c4c3CCCC12.O=C(O)C(F)(F)F (racemic) [24/rac-17, (7aS*,8S*)-8-(Aminomethyl)-4-cyclopropyl-12-fluoro-1-oxo-4,5,6,7,7a,8,9,10-octahydro-1H-pyrrolo[1′,2′:1,7]-azepino[2,3-h]quinoline-2-carboxylic acid trifluoroacetate]",C (MIC's of greater than 8.0 μg/mL = C),A (MIC's of 1.0 μg/mL or less = A),A (MIC's of 1.0 μg/mL or less = A),C (MIC's of greater than 8.0 μg/mL = C),B (MIC's of greater than 1.0 μg/mL to 8.0 μg/mL = B),C (MIC's of greater than 8.0 μg/mL = C),A (MIC's of 1.0 μg/mL or less = A),B (MIC's of greater than 1.0 μg/mL to 8.0 μg/mL = B),A (MIC's of 1.0 μg/mL or less = A),B (MIC's of greater than 1.0 μg/mL to 8.0 μg/mL = B),,,,,,,,,,
O=C(O)c1cn(C2CC2)c2c3c(c(F)cc2c1=O)N1CCC[C@H]1CCC3 [1/10],,,,,,,,,,,> 8 µg/mL,1 to 8 µg/mL,≤ 1 µg/mL,> 8 µg/mL,> 8 µg/mL,> 8 µg/mL,≤ 1 µg/mL,1 to 8 µg/mL,≤ 1 µg/mL,> 8 µg/mL
"N[C@H]1C[C@H]2CN=Cc3c(c(F)cc4c(=O)c(C(=O)O)cn(C5CC5)c34)N2C1.O=C(O)C(F)(F)F [5/10, (3aS,5S)-5-amino-13-cyclopropyl-8-fluoro-10-oxo-3a,4,5,6,10,13-hexahydro-3H-pyrrolo[2′,′:3,4][1,4]diazepino[5,6-h]quinoline-11-carboxylic acid trifluoroacetate]",C (MIC's of greater than 8.0 μg/mL = C),B (MIC's of greater than 1.0 μg/mL to 8.0 μg/mL = B),A (MIC's of 1.0 μg/mL or less = A),C (MIC's of greater than 8.0 μg/mL = C),B (MIC's of greater than 1.0 μg/mL to 8.0 μg/mL = B),C (MIC's of greater than 8.0 μg/mL = C),B (MIC's of greater than 1.0 μg/mL to 8.0 μg/mL = B),C (MIC's of greater than 8.0 μg/mL = C),B (MIC's of greater than 1.0 μg/mL to 8.0 μg/mL = B),C (MIC's of greater than 8.0 μg/mL = C),,,,,,,,,,
"N[C@H]1C[C@H]2CNCc3c(c(F)cc4c(=O)c(C(=O)O)cn(C5CC5)c34)N2C1.O=C(O)C(F)(F)F.O=C(O)C(F)(F)F [5/11, (3aS,5S)-5-amino-13-cyclopropyl-8-fluoro-10-oxo-2,3,3a,4,5,6,10,13-octahydro-1H-pyrrolo[2′,1′:3,4][1,4]diazepino[5,6-h]quinoline-11-carboxylic acid bis(trifluoroacetate)]",C (MIC's of greater than 8.0 μg/mL = C),B (MIC's of greater than 1.0 μg/mL to 8.0 μg/mL = B),A (MIC's of 1.0 μg/mL or less = A),C (MIC's of greater than 8.0 μg/mL = C),B (MIC's of greater than 1.0 μg/mL to 8.0 μg/mL = B),C (MIC's of greater than 8.0 μg/mL = C),B (MIC's of greater than 1.0 μg/mL to 8.0 μg/mL = B),C (MIC's of greater than 8.0 μg/mL = C),B (MIC's of greater than 1.0 μg/mL to 8.0 μg/mL = B),C (MIC's of greater than 8.0 μg/mL = C),,,,,,,,,,
"NC1CCN2c3c(F)cc4c(=O)c(C(=O)O)cn(C5CC5)c4c3COCC12.O=C(O)C(F)(F)F [6/7, (3aS,4R)-4-amino-13-cyclopropyl-8-fluoro-10-oxo-3a,4,5,6,10,13-hexahydro-1H,3H-pyrrolo[2′,1′:3,4][1,4]oxazepino[5,6-h]quinoline-1′-carboxylic acid trifluoroacetate]",B (MIC's of greater than 1.0 μg/mL to 8.0 μg/mL = B),A (MIC's of 1.0 μg/mL or less = A),A (MIC's of 1.0 μg/mL or less = A),B (MIC's of greater than 1.0 μg/mL to 8.0 μg/mL = B),A (MIC's of 1.0 μg/mL or less = A),C (MIC's of greater than 8.0 μg/mL = C),A (MIC's of 1.0 μg/mL or less = A),B (MIC's of greater than 1.0 μg/mL to 8.0 μg/mL = B),A (MIC's of 1.0 μg/mL or less = A),A (MIC's of 1.0 μg/mL or less = A),,,,,,,,,,
"N[C@H]1C[C@H]2CCCc3c(c(F)cc4c(=O)c(C(=O)O)cn(C5CC5)c34)N2C1.O=C(O)C(F)(F)F [7B/17, (7aR,9S)-9-Amino-4-cyclopropyl-12-fluoro-1-oxo-4,5,6,7,7a,8,9,10-octahydro-1H-pyrrolo[1′,′:1,7]-azepino[2,3-h]quinoline-2-carboxylic acid trifluoroacetate]",C (MIC's of greater than 8.0 μg/mL = C),A (MIC's of 1.0 μg/mL or less = A),A (MIC's of 1.0 μg/mL or less = A),B (MIC's of greater than 1.0 μg/mL to 8.0 μg/mL = B),B (MIC's of greater than 1.0 μg/mL to 8.0 μg/mL = B),C (MIC's of greater than 8.0 μg/mL = C),A (MIC's of 1.0 μg/mL or less = A),B (MIC's of greater than 1.0 μg/mL to 8.0 μg/mL = B),A (MIC's of 1.0 μg/mL or less = A),B (MIC's of greater than 1.0 μg/mL to 8.0 μg/mL = B),,,,,,,,,,
O=C1CC2CCCN2c2c(F)cc3c(=O)c(C(=O)O)cn(C4CC4)c3c2N1 (stereo not drawn) [32/3],,,,,,,,,,,,> 8 µg/mL,> 8 µg/mL,> 8 µg/mL,> 8 µg/mL,,> 8 µg/mL,,,
"O=C(O)c1cn(C2CC2)c2c3c(c(F)cc2c1=O)N1CCCC1CO3 (stereo not drawn) [Comparative Compound 1, reference compound]",,,,,,,,,,,,> 8 µg/mL,> 8 µg/mL,> 8 µg/mL,> 8 µg/mL,,1 to 8 µg/mL,,,
